Measurements published in EP3501540A1, “MITOCHONDRIAL TRIFUNCTIONAL PROTEIN (MTP) INHIBITORS FOR USE IN THE TREATMENT OF HIGH MITOCHONDRIAL RESPIRATION (OX+) CANCERS” (UNIVERSITE DE BORDEAUX, priority 2017, dated 2019).

Legend:
H460 cells [1] = experiment: Sensitivity to chemotherapeutic drugs; type: cell-based, human; settings: H460 cells compared with A549 cells; data not shown
HADHA = HADHA expression in cells; type: cell-based, human; settings: A549 cells; LiCl 20 mM
Protocol: Cells pellet were lysed in a buffer containing RIPA IX (Sigma-Aldrich) and protease inhibitors cocktail (chymostatin, leupeptin, antipain, pepstatin A - Sigma-Aldrich). Protein lysates were placed on ice for 15 min, vortexed and cleared by centrifugation at 12,000 × g for 15 min at 4 °C. The supernatants were retrieved and frozen at -80 °C until use. Protein concentration was performed using the Pierce™ BCA Protein Assay Kit.
Samples (20ug) were dissolved in Laemmli buffer (Bio-Rad) containing 2% mercaptoethanol by incubation for 15 min at 65°C and separated on a 4-15% SDS-polyacrylamide gradient TGX STAIN FREE mini-gel (Biorad). The gels are activated by UV with chemidoc (Biorad). Proteins were transferred electrophoretically to 0.45 µm of nitrocellulose membranes for 7 min at 2.5 Amp in Transfert buffer with Trans-Blot Turbo (biorad). Membranes were blocked 1h in odyssey buffer (eurobio) and incubated overnight in a mixture of antibodies diluted in odyssey buffer. After three washes with PBS-0.05% Tween 20, the membranes were incubated for 1 h with second antibody (LYCOR) diluted in odyssey buffer. This secondary antibody was detected by fluorescence with odyssey. Proteins were detected using specific antibodies (abcam) and total protein was used as the loading control. Primary antibodies (abcam®) against HADHA, VLCAD, mt-ETFA, mt-ETFB, NDUFS2 and NDUFAB1.

[2] = system: respiratory chain complex I; experiment: Complex I enzymatic activity assay (spectrophotometric); type: biochemical, human; settings: A549 cells: 500 µM Trimetazidine 48H; cell homogenate: 100 µM palmitoyl-Coa, 10 min incubation
Protocol: Enzymatic activities were measured spectrophotometrically, in homogenate of cells using the following reaction media: Complex I - 50mM potassium phosphate buffer, 100µM Decylubiquinone. The reaction was started by the addition of 100µM NADH and carried out at 37°C for 15 min in 340nm. After the stabilization of the signal was added 12,5µM Rotenone. Complex II - 25mM potassium phosphate buffer, 1mM KCN, 100µM ATP, 50µM DCPIP, 20mM succinate. The reaction was started by the addition of 100µM decylubiquinone and carried out at 37°C for 15 min in 660nm. Complex III - 100mM potassium phosphate buffer, 50µM cytochrome c, 250µM EDTA. The reaction was started by the addition of 100µM decylubiquinol and carried out at 37°C for 15 min in 550nm. After the stabilization of the signal was added 12,5µg/ml antimycin A. Complex IV - 100uM reduced cytochrome C in 50mM potassium phosphate buffer. The reaction was started by the addition of homogenate of cells and carried out at 37°C for 15 min in 550nm.

[3] = system: A549 cells expressing luciferase; experiment: Orthotopic mouse model of human lung OX+ adenocarcinoma, bioluminescence imaging; type: in vivo, mice; settings: luminescence imaging at day 3 and day 18; Trimetazidine 20mg/kg/day
Source text: (§1) All procedures using animals were approved by the Animal Care and Use Ethics Committee of the University of Bordeaux. The NOD/LtSz-scid/IL-2Rychain^null (NSG) mice were produced and housed in the University Bordeaux Segalen animal facility, according to the rules and regulations governed and enforced by the Institutional Animal Care and Use Committee. The animal facility institutional agreement number is A33063916. Animals were included in protocols between 6 and 8 weeks old. Mice were monitored weekly for body weights and were also examined for aspect and behavior during the time-course of the experiments. No changes were noticed except otherwise indicated.
(§2) The orthotopic mouse models of OX+ or OX- human LUAD were obtained by using luciferase expressing clones of A549 or H460 lung adenocarcinoma cell lines, respectively. Groups of 5 mice were anesthetized with isoflurane and 1 × 10^6 cells in a volume of 100µl were injected in the lung of 8-weeks NGS mice and imaged 20 min after injection. Bioluminescence imaging (BLI) was performed on a Bioimager following intraperitonal injection of 150 mg/kg of D-Luciferin (Interchim, Montluçon, France). After 10 min, mice were anesthetized by isoflurane and placed into a photon bioimager (BIOSPACE LAB, Paris, France) for about 20 min to acquire luminescence images. Signals were quantified with the M3Vision software (BIOSPACE LAB). […]

A549 (OX+) cells [4] = experiment: Oxygen consumption by high-resolution respirometry; type: cell-based, human; settings: 500µM for 48H
Protocol: O2 consumption rates were measured polarographically using high-resolution respirometry (Oroboros Oxygraph-O2K). After the treatment period, medium was removed and cells were either suspended in DMEM in the presence of glucose or not for measurements of O2 consumption of intact cells, or in the respiration medium pH 7.2 (mannitol 0.25 M, MgCl2 10 mM, KH2PO4 10 mM, HEPES 10 mM, EDTA 0.08 mM, EGTA 1 mM and fatty acid free BSA 0.1%) for evaluation of respiratory complexes of permeabilized cells. Routine consumption, oligomycin-independent respiration (proton leak), FCCP-stimulated respiration (ETS capacity - maximum respiration) and ROX (oxygen consumption in presence of rotenone and antimicyn A) were measured in intact […] cells. All the values were corrected by ROX. The respiratory activity of ETF of digitonin 0.0015%-permeabilized lung cancer cells were performed following the addition of palmitoyl-carnitine 25 µM (ETF-linked substrate), rotenone 0.5 µM, ADP 100 µM. DatLab software (Oroboros Instruments, Innsbruck, Austria) was used for data acquisition and analysis.

[5] = Mass spectrometry lipidomic analysis of blood; type: in vivo, mice; settings: 20mg/kg/day, day 7
Protocol: (§3) Extracted samples were dissolved in 100 µL CHC13; 15 µL was injected for analysis. LC separation was achieved using a Bio-Bond 5U C4 column (Dikma). The LC solvents were as follows: buffer A, 95:5 H2O:methanol + 0.03% NH4OH; buffer B, 60:35:5 isopropanol:methanol:H2O + 0.03% NH4OH. A typical LC run consisted of the following for 70 min after injection: 0.1 mL/min 100% buffer A for 5 min, 0.4 mL/min linear gradient from 20% buffer B to 100% buffer B over 50 min, 0.5 mL/min 100% buffer B for 8 min and equilibration with 0.5 mL/min 100% buffer A for 7 min. FFA analysis was performed using a Thermo Scientific Q Exactive Plus fitted with a heated electrospray ionization source. The MS source parameters were 4 kV spray voltage, with a probe temperature of 437.5 °C and capillary temperature of 268.75 °C. Full-scan MS data was collected with a resolution of 70 k, AGC target 1 × 106, maximum (max) injection time of 100 ms and a scan range of 150-2,000 m/z. […] Extracted ion chromatograms for each FFA were generated using a m/z ± 0.01 mass window around the calculated exact mass (i.e., palmitic acid, calculated exact mass for M-H is 255.2330, and the extracted ion chromatogram was 255.22-255.24). Quantification of the FFAs was performed by measuring the area under the peak and dividing this number by the area under the peak for [^13C16]palmitate. […]

A549 (OX+) cells [6] = experiment: NAD/NADH determination; type: cell-based, human; settings: 500µM for 48H
Protocol: The NAD/NADH was measure using the NAD/NADH Colorimetric assay Kit (abcam), according to the manufacturer's instructions. At 25°C absorbance was measured at 450 nm and the value used to calculate the ratio. The assay was normalized to cell number.

H460 (OX-) cells = experiment: Sulphorodamine B viability assay; type: cell-based, human; settings: H460 (OX-) cells in vitro
Protocol: A549_LUC and H460_LUC, human lung cancer cells, were stably transfected with luciferase (pRRLsin-MND-Luc-WPRE). The cells were maintained in DMEM medium (Gibco) 11885-084 and 11965-092 respectively, supplemented with 10% fetal bovine serum (FBS), pH 7.4 at 37°C in a humidified incubation chamber with 5% CO2. Cells were sub-cultured every 2 days and used on experiments when they reached 85% confluency. Also, they were tested as luciferase positive using direct application of 2 mL of a 150 mg/ml solution of luciferine (Firefly Luciferin, Caliper Lifescience Corp, USA), followed by immediate bioluminescent imaging using the photonIMAGER™ optima system.
(§4) Briefly, cells were seeded in 96-well plates and medium was changed after 24 h, then Test Reagent was added on top of the cell wells and incubated for up to 72h. The viability assay was performed using Sulforhodamine B colorimetric assay for viability assay following the protocol described by Vanicha Vichai & Kanyawim Kirtikara.

H460 cells [7] = experiment: Mass spectrometry lipidomic analysis of cells; type: cell-based, human; settings: 48 hours
Protocol: as §3

A549 cells [8] = experiment: Mass spectrometry lipidomic analysis of cells; type: cell-based, human; settings: inside A549 cells
Protocol: as §3

Complex I subunits = experiment: Quantitative proteome analysis of complex I subunits; type: cell-based, human; settings: A549 cells
A549 cells [9] = experiment: ATP measurement (CellTiter-Glo); type: cell-based, human; settings: 500µM for 48H
Protocol: The ATP content was performed using the The CellTiter-Glo® Luminescent Cell Viability Assay (Promega) folowing manufacturer's instructions. Luminescence was read on a spectramax M4 Multi-Mode Microplate Reader (Molecular Devices) and values were calculated based on an ATP standard curve. The assay was normalized to cell number.

[10] = system: human lung OX- H460 adenocarcinoma; experiment: Orthotopic mouse model of human lung OX- adenocarcinoma; type: in vivo, mice; settings: 20 mg/kg daily
Source text: as §1, §2

A549 (OX+) cells [11] = experiment: Sulphorodamine B viability assay; type: cell-based, human; settings: A549 (OX+) cells in vitro
Protocol: A549_LUC and H460_LUC, human lung cancer cells, were stably transfected with luciferase (pRRLsin-MND-Luc-WPRE). […] Also, they were tested as luciferase positive using direct application of 2 mL of a 150 mg/ml solution of luciferine (Firefly Luciferin, Caliper Lifescience Corp, USA), followed by immediate bioluminescent imaging using the photonIMAGER™ optima system.
as §4

A549 cells [12] = experiment: Incorporation of [13C]-palmitate in Krebs cycle by mass spectrometry; type: cell-based, human; settings: after 2 hours
Protocol: The incorporation of palmitate in Krebs cycle was followed at the level of citrate using mass spectrometry. A549 cells grown in low glucose DMEM were washed twice with PBS and resuspended in PBS containing 2 mm [U-13C]palmitate with (10 mm) glucose.
The cells were incubated for 2 h at 27 °C before fast filtration preparation of the samples for mass spectrometry analysis. Metabolites were analyzed by ionic-exchange chromatography coupled with tandem mass spectrometry (IC-MS/MS) using the method described by Bolten et al. Retention time on the column and multiple reaction monitoring (MRM) transition of each analyzed metabolite are known by the one skilled in the art.
The ^13C mass isotopomer distribution of intracellular metabolites was determined from relevant isotopic clusters in the IC-MS/MS analysis, according to Kiefer et al. ^13C mass isotopomer distribution measurements were performed using a triple quadrupole mass spectrometer (4000Qtrap, Applied Biosystems). To obtain ^13C-labeling patterns (^13C isotopologues), isotopic clusters were corrected for the natural abundance of isotopes other than 13C, using the in-house software IsoCor (available at MetaSys).

Compound: O=c1[nH]cc(F)c(=O)[nH]1 [5-fluorouracile]
- sensitivity to the chemotherapeutic drugs (H460 cells [1]): higher sensitivity

Compound: lithium-chloride
- expression of HADHA (HADHA): stimulated

Compound: CCCCCCCCCCCCCCCC(=O)SCCNC(=O)CCNC(=O)[C@H](O)C(C)(C)COP(=O)(O)OP(=O)(O)OC[C@H]1O[C@@H](n2cnc3c(N)ncnc32)[C@H](O)[C@@H]1OP(=O)(O)O [palmitoyl-CoA]
- respiratory chain complex I activity [2]: inhibition

Compound: COc1cc([C@@H]2c3cc4c(cc3[C@@H](O[C@@H]3O[C@@H]5CO[C@@H](C)O[C@H]5[C@H](O)[C@H]3O)[C@H]3COC(=O)[C@H]23)OCO4)cc(OC)c1O [etoposide]
- sensitivity to the chemotherapeutic drugs (H460 cells [1]): higher sensitivity

Compound: COC(=O)c1cccc(NS(=O)(=O)c2ccc(C)cc2)c1 [MSAB, methyl 3-{[(4-methylphenyl)sulfonyl]amino}benzoate]
- expression of HADHA (HADHA): opposite effect

Compound: COc1ccc(CN2CCNCC2)c(OC)c1OC [Trimetazidine, 1-(2,3,4-trimethoxybenzyl)piperazine]
- tumor size [3]: Reduction of tumor size
- mitochondrial respiration (A549 (OX+) cells [4]): inhibited
- Fatty-acids accumulation in the blood ([5]; OX+ mice): accumulation
- level of hydroxylated fatty acids (C18-OH, C18-1OH, C18-2OH, C16OH, C14OH) ([5]; blood of OX+ mice): increased
- NADH redox state (NAD+/NADH ratio) (A549 (OX+) cells [6]): altered
- cell viability (H460 (OX-) cells): no effect
- respiratory chain complex I activity [2]: inhibition
- accumulation of unprocessed fatty-acids (H460 cells [7]): not
- accumulation of unprocessed fatty-acids (A549 cells [8]): accumulation
- content of 15 Complex I subunits (Complex I subunits): significant reduction
- Complex I intermediate-associated protein 30 (CIA30; NDUFAF1) (Complex I subunits; after 4 hours of treatment): completely degraded
- cellular ATP content (A549 cells [9]): altered
- effect on OX- tumors [10]: no effect
- cell viability (A549 (OX+) cells [11]): Dose-dependent reduction
- incorporation of [^13C]-palmitate in the Krebs cycle ([^13C]citrate isotopomers) (A549 cells [12]): significant reduction

Compound: COc1ccccc1OCC(O)CN1CCN(CC(=O)Nc2c(C)cccc2C)CC1 (racemic) [Ranolazine, (±)-N-(2,6-dimethylphenyl)-4-[2-hydroxy-3-(2-methoxyphenoxy)-propyl]-1-piperazineacetamide]
- cell viability (A549 (OX+) cells [11]): dose-dependent loss

Compound: COc1cccc2c1C(=O)c1c(O)c3c(c(O)c1C2=O)C[C@@](O)(C(=O)CO)C[C@@H]3O[C@H]1C[C@H](N)[C@H](O)[C@H](C)O1 [doxorubicin]
- sensitivity to the chemotherapeutic drugs (H460 cells [1]): higher sensitivity
